“Also recorded” adds a separate entry of the source. Read-outs that look alike come from different tables or passages of the source.
Columns and labels:
[1] = tested on: insulin receptor (IR) phosphorylation (PTP1B-mediated) in HEK293T/17 cells; experiment: ELISA of insulin receptor (IR) phosphorylation in HEK293T/17 cells; type: cell-based; conditions: for IR phosphorylation (ELISA signal): 3% DMSO, 10 minutes, starved HEK293T/17 cells, vs 3% DMSO control; for Δμ, null hypothesis compound-(−) = 0: difference of means vs negative control (−)
Description: Analysis of PTP1B inhibition in HEK293TCells. We prepared HEK293T/17 cells for an enzyme-linked immunosorbent assay (ELISA) by growing them in 75 cm^2 culture flasks (Corning) with DMEM media supplemented with 10% FBS, 100 units/ml penicillin, and 100 units/ml streptomycin. We replaced the media every day for 3-5 days until the cells reached 80-100% confluency.
We measured the influence of inhibitors on insulin receptor (IR) phosphorylation by using an IR-specific ELISA (FIG. 35). Briefly, we starved cells for 48 hours in FBS-free media and incubated the with inhibitors (all at 3% DMSO) for 10 minutes. After incubation, we lysed cells with lysis buffer (9803, Cell Signaling Technology) supplemented with 1× halt phosphatase inhibitor cocktail and 1× halt protease inhibitor cocktail (Thermo Fisher Scientific) for 10 min, pelleted the cell debris, and used the lysis buffer to dilute each sample to 60 mg/ml total protein. We measured IR phosphorylation in subsequent dilutions of the 60 mg/ml samples with the PathScan® Phospho-Insulin Receptor β (panTyr) Sandwich ELISA Kit (Cell Signaling Technology; #7082).
Statistical analysis and reproducibility. We determined statistical significance (FIG. 23H) with a two-tailed Student's t-test (details in TABLE 14), and we used an F-test to compare one- and two-parameter models of inhibition (TABLE 12).

[2] = target: T1, SHP1 (Homo sapiens, UniProt P29350); experiment: SHP1-catalyzed hydrolysis of 4-MUP in the presence of terpenoids; type: biochemical, H. sapiens
T1 construct: made in house; host or cells: E. coli BL21 (DE3)
T1 sequence (P29350 whole entry): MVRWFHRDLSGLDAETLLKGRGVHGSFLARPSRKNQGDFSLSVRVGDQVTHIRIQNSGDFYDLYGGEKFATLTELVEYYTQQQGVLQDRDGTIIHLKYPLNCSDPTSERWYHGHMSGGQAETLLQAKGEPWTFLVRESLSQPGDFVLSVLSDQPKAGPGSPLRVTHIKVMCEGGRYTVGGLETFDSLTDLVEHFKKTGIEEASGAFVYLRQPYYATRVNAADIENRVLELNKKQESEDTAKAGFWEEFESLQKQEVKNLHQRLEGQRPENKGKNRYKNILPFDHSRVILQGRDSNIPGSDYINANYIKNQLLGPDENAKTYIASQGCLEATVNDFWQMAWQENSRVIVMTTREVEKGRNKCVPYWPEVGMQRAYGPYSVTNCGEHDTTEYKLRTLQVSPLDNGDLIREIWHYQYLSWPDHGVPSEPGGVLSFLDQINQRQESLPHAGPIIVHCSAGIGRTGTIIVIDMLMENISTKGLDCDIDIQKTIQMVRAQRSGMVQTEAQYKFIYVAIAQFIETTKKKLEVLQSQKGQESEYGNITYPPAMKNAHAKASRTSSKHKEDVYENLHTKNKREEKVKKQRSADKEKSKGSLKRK
Method: (§1) Enzyme kinetics. To examine terpenoid-mediated inhibition, we measured PTP-catalyzed hydrolysis of p-nitrophenyl phosphate (pNPP) or 4-methylumbelliferyl phosphate (4-MUP, used when KM for pNPP was large) in the presence of various concentrations of terpenoids. Each reaction included PTP (0.05 μM PTP1B/TCPTP or 0.1 μM SHP1/SHP2 in 50 mM HEPES, 0.5 mM TCEP, 50 μg/ml BSA), pNPP (0.33, 0.67, 2, 5, 10, and 15 mM) or 4-MUP (0.13, 0.27, 0.8, 2.27, 2.93, 4.53, 7.07, and 8 mM), inhibitor (with concentrations listed in the figures), buffer (50 mM HEPES pH=7.3, 50 μg/ml BSA), and DMSO at 10% v/v. We monitored the formation of p-nitrophenol by measuring absorbance at 405 nm every 10 seconds for 5 minutes on a SpectraMax M2 plate reader and the formation of 4-methylumbelliferyl by measuring fluorescence at 450 nm (370 nm ex, 435 nm cutoff, medium gain).
We used a custom MATLAB script to process all raw kinetic data. This script removed all concentration values that fell outside of either (i) the range of our standard curve (absorbance/fluorescence vs. μM; FIG. 39) or (ii) the initial rate regime (>10% of the pNPP or 4-MUP concentration used in the assay). When this step reduced kinetic dataset to fewer than ten points, we re-measured those datasets to collect at least ten. We fit final datasets, in turn, with a linear regression model (using Matlab's backslash operator). […]

[3] = target: T2, PTP1B (Homo sapiens, UniProt P18031); type: cell-based, H. sapiens; conditions: terpenoid produced in the cell by its metabolic pathway
T2 construct: In this study, we used a well-studied truncation variant (i.e., PTP1B1-321); His-tag; made in house; host or cells: E. coli BL21 (DE3), pET21b
T2 sequence (P18031 1-321): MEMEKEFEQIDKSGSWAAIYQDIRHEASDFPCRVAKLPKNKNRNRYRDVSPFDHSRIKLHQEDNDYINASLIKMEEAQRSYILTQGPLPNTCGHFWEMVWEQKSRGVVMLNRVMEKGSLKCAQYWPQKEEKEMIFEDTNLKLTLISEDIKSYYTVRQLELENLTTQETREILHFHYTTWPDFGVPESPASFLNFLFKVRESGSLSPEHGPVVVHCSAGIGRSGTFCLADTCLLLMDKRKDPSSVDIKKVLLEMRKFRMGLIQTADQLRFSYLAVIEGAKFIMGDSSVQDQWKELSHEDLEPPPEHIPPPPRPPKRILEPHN

[4] = target: T3, TC-PTP (TCPTP1-317; TCPTP292 in FIG. 12) (Mus musculus, UniProt Q06180); experiment: TC-PTP-catalyzed hydrolysis of pNPP in the presence of terpenoids; type: biochemical, H. sapiens; conditions: TCPTP1-317
T3 construct: His-tag; made in house; host or cells: E. coli BL21 (DE3), pET16b
T3 sequence (Q06180 1-317): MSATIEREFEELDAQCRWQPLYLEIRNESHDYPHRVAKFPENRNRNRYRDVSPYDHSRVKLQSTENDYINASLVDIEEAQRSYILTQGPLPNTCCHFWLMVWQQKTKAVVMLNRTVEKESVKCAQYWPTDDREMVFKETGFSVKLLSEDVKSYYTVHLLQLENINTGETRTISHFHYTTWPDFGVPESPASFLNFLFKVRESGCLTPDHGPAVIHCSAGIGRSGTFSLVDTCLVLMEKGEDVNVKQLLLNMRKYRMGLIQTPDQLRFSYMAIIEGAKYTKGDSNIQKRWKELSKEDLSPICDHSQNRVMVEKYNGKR
Method: as §1
(§2) We used a custom MATLAB script to process all raw kinetic data. This script removed all concentration values that fell outside of either (i) the range of our standard curve (absorbance/fluorescence vs. μM; FIG. 39) or (ii) the initial rate regime (>10% of the pNPP or 4-MUP concentration used in the assay). When this step reduced kinetic dataset to fewer than ten points, we re-measured those datasets to collect at least ten. We fit final datasets, in turn, with a linear regression model (using Matlab's backslash operator).
(§3) We evaluated kinetic models in three steps: (i) We fit initial-rate measurements collected in the absence and presence of inhibitors to Michaelis-Menten and inhibition models, respectively (here, we used the nlinfit and fminsearch functions from MATLAB; TABLE 12). (ii) We used an F-test to compare the mixed model to the single-parameter model with the least sum squared error (here, we used the fedf function from MATLAB to assign p-values), and we accepted the mixed model when p<0.05. (iii) We used the Akaike's Information Criterion (AIC) to compare the best-fit single parameter model to each alternative single parameter model, and we accepted the “best-fit” model when the difference in AIC (Δi) exceed 5 for all comparisons.^78 We note: For AD, AB, and (+) 1-(10),4-cadinadiene this criterion was not met; both noncompetitive and uncompetitive models, however, yielded indistinguishable ICso's.
(§4) We used the MATLAB function “nlparci” to determine the confidence intervals of kinetic parameters, and we propagated those intervals to estimate corresponding confidence intervals for each IC50.

[5] = tested on: TC-PTP (TCPTP1-317; TCPTP292 in FIG. 12); experiment: as above; type: biochemical, H. sapiens; conditions: PTP1B321 vs TCPTP292 / TC-PTP, pNPP
Method: as §1, §2, §3, §4

[6] = FIG. 3h, t-test, unequal variance
[7] = mixed model, uncompetitive constant, read-out: Fit par. Ki,u, mixed model
[8] = noncompetitive model of inhibition, read-out: Fit par. Ki, noncompetitive model
[9] = uncompetitive model of inhibition, read-out: Fit par. Ki, uncompetitive model

Compound	IR phosphorylation (ELISA signal) ([1]; 930 μM)	IR phosphorylation (ELISA signal) ([1]; 930 μM, listed as AD)	IR phosphorylation (ELISA signal) ([1]; 930 μM, listed as Amorphadiene)	Δμ, null hypothesis AD-DHA = 0 ([1]; difference of means AD vs DHA, FIG. 3h, t-test, unequal variance)	Δμ, null hypothesis compound-(−) = 0 [1, 6]	inhibition of SHP1 [2]	survival of E. coli with PTP1B B2H system on spectinomycin [3]	Ki [4, 7] [µM]	Ki [4, 8] [µM]	Ki [4, 9] [µM]	potency against PTP1B relative to TC-PTP (selectivity from IC50's) [5]	potency against PTP1B relative to TC-PTP (selectivity from IC50's) ([5]; listed as AD)	IR phosphorylation (ELISA signal) ([1]; 405 μM)	IR phosphorylation (ELISA signal) ([1]; 405 μM, listed as AB)	Δμ, null hypothesis AB-ABOL = 0 ([1]; difference of means AB vs ABOL, FIG. 3h, t-test, unequal variance)	Ki ([4]; mixed model, competitive constant, read-out: Fit par. Ki,c, mixed model) [µM]	potency against PTP1B relative to TC-PTP (selectivity from IC50's) ([5]; listed as AB)
C=C(C)[C@@H]1CC[C@@H](C)[C@@H]2CCC(C)=C[C@@H]21 [amorphadiene]	inhibit PTP1B inside of a HEK293T/17 cell; also recorded: can increase IR phosphorylation over a negative control	increased IR phosphorylation over a negative control	stimulate IR phosphorylation	0.124	0.212	too weak to measure	permitted survival at high concentrations of antibiotic	356	400	356	~ five-fold; also recorded: much more potently	five- to six-fold					
CC(C)=CCC=C(C)C1CC=C(C)CC1 (stereo not drawn) [α-bisabolene]					0.310	low potency	permitted survival at high concentrations of antibiotic	69.3	76.2	69.2	much more potently		stimulate IR phosphorylation; also recorded: can increase IR phosphorylation over a negative control	increased IR phosphorylation over a negative control	0.309	3610	five- to six-fold
